Results taken from patent US10464947B2 (Incyte Corporation, priority 2013, dated 2019).

What was measured:
BRD4-BD1 = BRD4-BD1 (Homo sapiens (Human), UniProt O60885); assay: BRD4 AlphaScreen Assay (Example A2), BRD4-BD1; type: binding; conditions: read-out: BRD4 BD-1 enzyme IC50
Description: (§1) BRD4-BD1 and BRD4-BD2 assays were conducted in white 384-well polystyrene plate in a final volume of 40 μL for BD1 and 60 μL for BD2. Inhibitors were first serially diluted in DMSO and added to the plate wells before the addition of other reaction components. […] The assays were carried out at room temperature in the assay buffer (50 mM Tris-HCl, pH 7.5, 0.01% Tween-20, 0.01% BSA, 5 mM DTT), containing 50 nM Biotin-labeled tetra-acetylated histone H4 peptide (H4Ac4) and BRD4-BD1 or BRD4-BD2 protein at concentration less than 1 nM. […] After plate sealing, the plate was incubated in the dark at room temperature for 75 min. before reading on a PHERAstar FS plate reader (BMG Labtech). IC50 determination was performed by fitting the curve of percent control activity versus the log of the inhibitor concentration using the GraphPad Prism 5.0 software.

BRD4-BD2 = BRD4-BD2 (Homo sapiens (Human), UniProt O60885); assay: BRD4 AlphaScreen Assay (Example A2), BRD4-BD2; type: binding; conditions: read-out: BRD4 BD-2 enzyme IC50
Description: as §1

KMS.12.BM cells = assay: KMS.12.BM Cell Viability Assay (Example B1); type: cell-based, human; conditions: Homo sapiens, 72 h, 3 days, Cell Titer-GLO, read-out: KMS cellular IC50
Procedure, shortened: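 KMS.12.BM human myeloma cells, 5000 cells/well in RPMI with 10% FBS, exposed to a compound concentration range for 3 days. Viable cells measured by ATP-based Cell Titer-GLO luminescence after 10 min at room temperature.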

C-myc in KMS.12.BM cells = assay: KMS.12.BM C-Myc ELISA Assay (Example C1); type: cell-based; conditions: Homo sapiens, 2 h
Description: KMS.12.BM C-Myc ELISA Assay
KMS.12.BM cell line (human myeloma) was purchased from JCRB (Osaka, Japan) and maintained in RPMI with 10% FBS culture medium. To measure the C-myc inhibitory activity of the compounds, the KMS.12.BM cells are plated in the RPMI culture medium at 75000 cells/well/per 200 μL into a 96-well flat bottom polystyrene tissue culture plate (Corning through VWR, NJ), in the presence or absence of a concentration range of test compounds. After 2 h, cells are pelleted and lysed with Cell Extraction Buffer (BioSource, Carlsbad, Calif.) in the presence of protease inhibitors (Life Technologies, Grand Island, N.Y. and Sigma, St Louis, Mo.). Clarified lyses are tested in a C-myc commercial ELISA (Life Technologies, Grand Island, N.Y.).

| IC50 (BRD4-BD1) [µM] | IC50 (BRD4-BD2) [µM] | IC50 (C-myc in KMS.12.BM cells) [µM] | SMILES | IC50 (KMS.12.BM cells) [µM] |
| --- | --- | --- | --- | --- |
| < 0.1 | < 0.1 | < 1 | Cc1noc(C)c1-c1ccc2[nH]c(=O)n3c2c1OCC3c1cccnc1C(=O)NCCO (single isomer, unassigned) [Example 135, 3-[7-(3,5-Dimethylisoxazol-4-yl)-2-oxo-1,2,4,5-tetrahydroimidazo[1,5,4-de][1,4]benzoxazin-4-yl]-N-(2-hydroxyethyl)pyridine-2-carboxamide] | < 1 |
| < 0.1 | < 0.1 | < 1 | Cc1noc(C)c1-c1ccc2[nH]c(=O)n3c2c1OCC3c1cccnc1C(=O)NCC(F)(F)F (single isomer, unassigned) [Example 136, 3-[7-(3,5-dimethylisoxazol-4-yl)-2-oxo-1,2,4,5-tetrahydroimidazo[1,5,4-de][1,4]benzoxazin-4-yl]-N-(2,2,2-trifluoroethyl)pyridine-2-carboxamide] | < 1 |
